{
  "source": "patent US12385058B2",
  "about": "“Herbicide tolerance protein, encoding gene thereof and use thereof” (Beijing Dabeinong Biotechnology Co., Ltd., priority 2018, dated 2025)",
  "test_system": "maize plants",
  "test": "Herbicide tolerance of transgenic maize T1 plants (spraying, damage degree)",
  "format": "in vivo",
  "conditions": "144 g ai/ha (8x Tri.)",
  "procedure": "The degree of damage caused by the herbicide was measured for each plant according to the plant growth status 3 days after spraying (3 DAT), 7 days after spraying (7 DAT), 14 days after spraying (14 DAT) and 21 days after spraying (21 DAT): a growth status equivalent to that of the untreated plants is defined as having a damage degree of 0%; the case where leaves are locally chlorotic and yellow but the normal plant growth is substantially not affected is defined as having a damage degree of 50%; and the case where the whole plant is purple and dying is defined as having a damage degree of 100%. The maize plants into which the ALT02M1-02 nucleotide sequence was introduced were of three strains in total (S15, S16 and S17), the maize plants into which the ALT02M2-02 nucleotide sequence was introduced were of three strains in total (S18, S19 and S20), the maize plants into which the ALT02M3-02 nucleotide sequence was introduced were of three strains in total (S21, S22 and S23), the maize plants into which the ALT02-02 nucleotide sequence was introduced were of three strains in total (S24, S25 and S26), the control maize plants were of two strains in total (S27 and S28), and the wild-type maize plants were of one strain in total (CK2); and 10-15 plants were selected from each strain and tested.",
  "key": {"[1]": {"conditions": "maize genotype CK2 (wild-type maize plants)"}, "[2]": {"conditions": "maize genotype S15 (ALT02M1-02 introduced)"}, "[3]": {"conditions": "maize genotype S16 (ALT02M1-02 introduced)"}, "[4]": {"conditions": "maize genotype S17 (ALT02M1-02 introduced)"}, "[5]": {"conditions": "maize genotype S18 (ALT02M2-02 introduced)"}, "[6]": {"conditions": "maize genotype S19 (ALT02M2-02 introduced)"}, "[7]": {"conditions": "maize genotype S20 (ALT02M2-02 introduced)"}, "[8]": {"conditions": "maize genotype S21 (ALT02M3-02 introduced)"}, "[9]": {"conditions": "maize genotype S22 (ALT02M3-02 introduced)"}, "[10]": {"conditions": "maize genotype S23 (ALT02M3-02 introduced)"}, "[11]": {"conditions": "maize genotype S24 (ALT02-02 introduced)"}, "[12]": {"conditions": "maize genotype S25 (ALT02-02 introduced)"}, "[13]": {"conditions": "maize genotype S26 (ALT02-02 introduced)"}, "[14]": {"conditions": "maize genotype S27 (control maize plants, DBN100830N)"}, "[15]": {"conditions": "maize genotype S28 (control maize plants, DBN100830N)"}},
  "data": [
    {"substance": "methyl 2-[N-(4-methoxy-6-methyl-1,3,5-triazin-2-yl)-N-methylcarbamoylaminosulfonyl]benzoate [tribenuron-methyl]", "values": [
      {"measurement": "Average damage % 3DAT", "setting": "[1]", "result": 46, "unit": "%"},
      {"measurement": "Average damage % 7DAT", "setting": "[1]", "result": 86, "unit": "%"},
      {"measurement": "Average damage % 14DAT", "setting": "[1]", "result": 100, "unit": "%"},
      {"measurement": "Average damage % 21DAT", "setting": "[1]", "result": 100, "unit": "%"},
      {"measurement": "Average damage % 3DAT", "setting": "[2]", "result": 5, "unit": "%"},
      {"measurement": "Average damage % 7DAT", "setting": "[2]", "result": 0, "unit": "%"},
      {"measurement": "Average damage % 14DAT", "setting": "[2]", "result": 0, "unit": "%"},
      {"measurement": "Average damage % 21DAT", "setting": "[2]", "result": 0, "unit": "%"},
      {"measurement": "Average damage % 3DAT", "setting": "[3]", "result": 6, "unit": "%"},
      {"measurement": "Average damage % 7DAT", "setting": "[3]", "result": 0, "unit": "%"},
      {"measurement": "Average damage % 14DAT", "setting": "[3]", "result": 0, "unit": "%"},
      {"measurement": "Average damage % 21DAT", "setting": "[3]", "result": 0, "unit": "%"},
      {"measurement": "Average damage % 3DAT", "setting": "[4]", "result": 3, "unit": "%"},
      {"measurement": "Average damage % 7DAT", "setting": "[4]", "result": 0, "unit": "%"},
      {"measurement": "Average damage % 14DAT", "setting": "[4]", "result": 0, "unit": "%"},
      {"measurement": "Average damage % 21DAT", "setting": "[4]", "result": 0, "unit": "%"},
      {"measurement": "Average damage % 3DAT", "setting": "[5]", "result": 0, "unit": "%"},
      {"measurement": "Average damage % 7DAT", "setting": "[5]", "result": 0, "unit": "%"},
      {"measurement": "Average damage % 14DAT", "setting": "[5]", "result": 0, "unit": "%"},
      {"measurement": "Average damage % 21DAT", "setting": "[5]", "result": 0, "unit": "%"},
      {"measurement": "Average damage % 3DAT", "setting": "[6]", "result": 0, "unit": "%"},
      {"measurement": "Average damage % 7DAT", "setting": "[6]", "result": 0, "unit": "%"},
      {"measurement": "Average damage % 14DAT", "setting": "[6]", "result": 0, "unit": "%"},
      {"measurement": "Average damage % 21DAT", "setting": "[6]", "result": 0, "unit": "%"},
      {"measurement": "Average damage % 3DAT", "setting": "[7]", "result": 0, "unit": "%"},
      {"measurement": "Average damage % 7DAT", "setting": "[7]", "result": 0, "unit": "%"},
      {"measurement": "Average damage % 14DAT", "setting": "[7]", "result": 0, "unit": "%"},
      {"measurement": "Average damage % 21DAT", "setting": "[7]", "result": 0, "unit": "%"},
      {"measurement": "Average damage % 3DAT", "setting": "[8]", "result": 3, "unit": "%"},
      {"measurement": "Average damage % 7DAT", "setting": "[8]", "result": 0, "unit": "%"},
      {"measurement": "Average damage % 14DAT", "setting": "[8]", "result": 0, "unit": "%"},
      {"measurement": "Average damage % 21DAT", "setting": "[8]", "result": 0, "unit": "%"},
      {"measurement": "Average damage % 3DAT", "setting": "[9]", "result": 2, "unit": "%"},
      {"measurement": "Average damage % 7DAT", "setting": "[9]", "result": 0, "unit": "%"},
      {"measurement": "Average damage % 14DAT", "setting": "[9]", "result": 0, "unit": "%"},
      {"measurement": "Average damage % 21DAT", "setting": "[9]", "result": 0, "unit": "%"},
      {"measurement": "Average damage % 3DAT", "setting": "[10]", "result": 0, "unit": "%"},
      {"measurement": "Average damage % 7DAT", "setting": "[10]", "result": 0, "unit": "%"},
      {"measurement": "Average damage % 14DAT", "setting": "[10]", "result": 0, "unit": "%"},
      {"measurement": "Average damage % 21DAT", "setting": "[10]", "result": 0, "unit": "%"},
      {"measurement": "Average damage % 3DAT", "setting": "[11]", "result": 14, "unit": "%"},
      {"measurement": "Average damage % 7DAT", "setting": "[11]", "result": 5, "unit": "%"},
      {"measurement": "Average damage % 14DAT", "setting": "[11]", "result": 0, "unit": "%"},
      {"measurement": "Average damage % 21DAT", "setting": "[11]", "result": 0, "unit": "%"},
      {"measurement": "Average damage % 7DAT", "setting": "[12]", "result": 4, "unit": "%"},
      {"measurement": "Average damage % 14DAT", "setting": "[12]", "result": 0, "unit": "%"},
      {"measurement": "Average damage % 21DAT", "setting": "[12]", "result": 0, "unit": "%"},
      {"measurement": "Average damage % 3DAT", "setting": "[13]", "result": 20, "unit": "%"},
      {"measurement": "Average damage % 7DAT", "setting": "[13]", "result": 7, "unit": "%"},
      {"measurement": "Average damage % 14DAT", "setting": "[13]", "result": 0, "unit": "%"},
      {"measurement": "Average damage % 21DAT", "setting": "[13]", "result": 0, "unit": "%"},
      {"measurement": "Average damage % 3DAT", "setting": "[14]", "result": 61, "unit": "%"},
      {"measurement": "Average damage % 7DAT", "setting": "[14]", "result": 82, "unit": "%"},
      {"measurement": "Average damage % 14DAT", "setting": "[14]", "result": 100, "unit": "%"},
      {"measurement": "Average damage % 21DAT", "setting": "[14]", "result": 100, "unit": "%"},
      {"measurement": "Average damage % 3DAT", "setting": "[15]", "result": 53, "unit": "%"},
      {"measurement": "Average damage % 7DAT", "setting": "[15]", "result": 78, "unit": "%"},
      {"measurement": "Average damage % 14DAT", "setting": "[15]", "result": 100, "unit": "%"},
      {"measurement": "Average damage % 21DAT", "setting": "[15]", "result": 100, "unit": "%"}
    ]}
  ]
}
